Experiments:
Format in all cases: in vivo, human
[1] = tested on: serum parathyroid hormone (PTH); assay: Phase 1B Dose-Finding Study in Postmenopausal Women: serum PTH in subjects with >60 pg/ml serum PTH at baseline; settings: after 28 days
Procedure: (§1) Reference is made to Zella et al., “Novel, Selective Vitamin D Analog Suppresses Parathyroid Hormone in Uremic Animals and Postmenopausal Women, Am J. Nephrology 2014; 39:476-483, May 17, 2014, the content of which is incorporated herein by reference in its entirety. Zella et al. discloses the results from a Phase 1B Dose-Finding Study in Postmenopausal Women in which the participants were administered various doses of 2MD and afterwards, serum parathyroid hormone (PTH) levels and serum calcium levels were monitored. In Zella et al.'s study, post-menopausal women were treated orally once daily with 2MD, calcitriol, or placebo for 28 days. Serum samples for PTH analysis were collected at baseline and 2, 7, 14, and 28 days after the first dose was administered.
In FIG. 1 of the present application, the results from the Phase 1B Dose-Finding Study in Postmenopausal Women from Zella et al. were plotted using only data from subjects that would be classified as having primary hyperparathyroidism or on a watch list for having primary hyperparathyroidism (i.e., subjects having >60 pg/ml serum PTH at baseline). In FIG. 1, the number of subjects administered each dose of 2MD, calcitriol, or placebo, consisted of the following: 0.05 μg 2MD-2 subjects, 0.11 μg 2MD-3 subjects; 0.17 μg 2MD-4 subjects; 0.44 μg 2MD-2 subjects; 0.5 μg calcitriol-1 subject; and placebo-1 subject. As indicated, PTH levels in the subjects administered 2MD at: doses of 0.11 μg, 0.17 μg, and 0.4 μg decreased over time at a level corresponding, to the dose of 2MD. After 28 days, a dose of 2MD of 0.11 μg, 0.17 μg, and. […] (See FIG. 2 and FIG. 3). In summary, 2MD could be administered orally at a daily dose of 0.11 μg-0.44 μg to treat subjects having primary hyperparathyroidism or at risk, for developing primary hyperparathyroidism.

[2] = Phase 1B Dose-Finding Study in Postmenopausal Women: serum phosphate levels; settings: baseline vs 28 days, orally once daily, subjects with >60 pg/ml serum PTH at baseline
Procedure: as §1
(§2) In FIG. 1 of the present application, the results from the Phase 1B Dose-Finding Study in Postmenopausal Women from Zella et al. were plotted using only data from subjects that would be classified as having primary hyperparathyroidism or on a watch list for having primary hyperparathyroidism (i.e., subjects having >60 pg/ml serum PTH at baseline). In FIG. 1, the number of subjects administered each dose of 2MD, calcitriol, or placebo, consisted of the following: 0.05 μg 2MD-2 subjects, 0.11 μg 2MD-3 subjects; 0.17 μg 2MD-4 subjects; 0.44 μg 2MD-2 subjects; 0.5 μg calcitriol-1 subject; and placebo-1 subject. […]

[3] = Phase 1B Dose-Finding Study in Postmenopausal Women: serum calcium levels; settings: baseline vs 28 days, orally once daily, subjects with >60 pg/ml serum PTH at baseline
Procedure: as §1, §2

## C=C1[C@H](O)CC(=C/C=C2\CCC[C@@]3(C)C2CCC3[C@@H](C)CCCC(C)(C)O)C[C@H]1O (stereo partly drawn) [2MD, 2-methylene-19-nor-(20S)-1α,25-dihydroxyvitamin D3]
[1]; 0.05 μg orally once daily
  increase in PTH: 16%
[1]; 0.11 μg orally once daily
  decrease in PTH: −7%
[1]; 0.17 μg orally once daily
  decrease in PTH: −31%
[1]; 0.4 μg orally once daily
  decrease in PTH: −44%
[2]
  rise in serum phosphate levels: without increasing serum calcium or serum phosphate
[3]
  rise in serum calcium levels: without increasing serum calcium

## C=C1/C(=C\C=C2/CCC[C@]3(C)[C@@H]([C@H](C)CCCC(C)(C)O)CC[C@@H]23)C[C@@H](O)C[C@@H]1O [calcitriol, reference compound]
[1]; 0.5 μg orally once daily
  increase in PTH: 15%

Source: patent US10369161B2, “Use of 2-methylene-19-NOR-(20S)-1-alpha,25-dihydroxyvitamin D3 to treat primary hyperparathyroidism” (Wisconsin Alumni Research Foundation, priority 2014, dated 2019)
